Measured values reported in US7696218B2, “Substituted 1,3-dialkyl-2,4-dioxo-6-(arylamino)-1,2,3,4-tetrahydropyrimidine-5-hydroxamic acid inhibitors of MAPK/ERK kinase” (Takeda San Diego, Inc., priority 2006, dated 2010).
pIC50: −log10 of the molar value.

The molecules below were run against T1, MEK2 (Homo sapiens, UniProt P36507, S222E/S226D) (assay: MEK2 inhibition assay, fluorescence polarization with IMAP beads (ERK1 / FI-Erktide substrate)). Conditions: 4 nM MEK2, 25 nM ERK1, 400 μM ATP, 500 nM FI-Erktide, 1% DMSO, 22 min at room temperature; values given as ranges; read-out: IC50 of Exemplified Compounds Against MEK2.
T1 construct: 6-histidine tag (N); made in house; host or cells: Spodoptera frugiperda Sf9 (baculovirus) for MEK2; E. coli for ERK1
T1 sequence (P36507 with tags, fused parts or gaps S222E/S226D): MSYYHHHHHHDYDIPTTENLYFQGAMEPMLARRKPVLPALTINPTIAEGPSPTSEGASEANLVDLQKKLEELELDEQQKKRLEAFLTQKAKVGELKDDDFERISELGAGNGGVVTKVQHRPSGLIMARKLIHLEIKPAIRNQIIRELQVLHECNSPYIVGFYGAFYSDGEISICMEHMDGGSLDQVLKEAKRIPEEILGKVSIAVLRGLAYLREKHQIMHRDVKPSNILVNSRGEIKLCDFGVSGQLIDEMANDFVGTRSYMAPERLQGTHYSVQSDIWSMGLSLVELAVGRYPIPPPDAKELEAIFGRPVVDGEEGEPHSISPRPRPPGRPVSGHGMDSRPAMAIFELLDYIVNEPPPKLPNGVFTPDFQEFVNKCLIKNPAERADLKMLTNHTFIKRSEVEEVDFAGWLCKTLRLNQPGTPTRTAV
Assay type: biochemical
Text: For MEK2, DNA encoding residues 1-400 (S222E/S226D) of the full-length sequence of the human enzyme may be amplified by PCR and cloned into pFastbac (Invitrogen), which incorporates a 6-histidine tag at the N-terminus. The two mutations, S222E and S226D, may be obtained by quick change PCR. SEQ ID NO: 3 corresponds to residues 1-400 with mutations S222E/S226D, and with the N-terminal 6-histidine tag and SEQ ID NO: 4 is the DNA sequence that was used to encode SEQ ID NO: 3.
Recombinant baculovirus incorporating the MEK1 and MEK2 constructs may be generated by transposition using the Bac-to-Bac system (Invitrogen). High-titer viral stocks may be generated by infection of Spodoptera frugiperda Sf9 cells; the expression of recombinant protein may be carried out by infection of Spodoptera frugiperda Sf9 (Invitrogen) in 5L Wave Bioreactors (Wave Biotech).
Recombinant protein may be isolated from cellular extracts by passage over ProBond resin (Invitrogen). Partially purified extracts of all MEK1 may then be further purified by high pressure liquid chromatography over a SEC2000 gel filtration resin. The purity of MEK1 and MEK2 proteins may be determined on denaturing SDS-PAGE gel. Purified MEK1 and MEK2 may then be concentrated to a final concentration of 3.4 mg/ml and 5.4 mg/ml, respectively. The proteins may be either stored at −78° C. in a buffer containing 50 mM TRIS-HCl pH 7.6, 250 mM NaCl, 0.1 mM EDTA and 0.125 mM TCEP or at −20° C. in the presence of glycerol (final concentration of glycerol at 50%).
The inhibitory properties of compounds relative to MEK1 or MEK2 may be determined using a black 384-well-plate format under the following reaction conditions: 50 mM HEPES pH 7.3, 10 mM NaCl, 10 mM MgCl2, 0.01% Brij35, 1 nM MEK1 or 4 nM MEK2, 25 nM ERK1, 400 μM ATP, 500 nM IPTTPITTYFFFK-5FAM-COOH (FI-Erktide), and 1% DMSO. Reaction product is determined quantitatively by fluorescent polarization using progressive IMAP beads from Molecular Devices.
The assay reaction may be initiated as follows: 2 μl of the mixture of 1.5 μM FI-Erktide and 75 nM ERK with 2 μl of inhibitor (2 fold serial dilutions for 11 data points for each inhibitor) containing 3% DMSO were added to each well of the plate, followed by the addition of 2 μl of the mixture of 3 nM MEK1 or 12 nM MEK2 and 1200 μM ATP to initiate the reaction (final enzyme concentration was 1 nM for MEK1 or 4 nM for MEK2). The reaction mixture may then be incubated at room temperature for 22 min, and quenched and developed by addition of 20 μl of 1:200 dilution of progressive IMAP beads (Molecular Devices) in 80% buffer A, 20% bufferB and 0.003% Tween 20. Fluorescence polarization of the resulting reaction mixtures may be measured after a 1 hour incubation at room temperature.
IC50 values may be calculated by non-linear curve fitting of the compound concentrations and fluorescence polarization signal to the standard IC50 equation.
Work on `Cc1cc(I)ccc1Nc1c(C(N)=O)c(=O)n(C)c(=O)n1C` [Example 17, 6-(4-Iodo-2-methylphenylamino)-1,3-dimethyl-2,4-dioxo-1,2,3,4-tetrahydropyrimidine-5-carboxamide] yielded a pIC50 of 5.60 to 6.30. In the case of `CCn1c(Nc2ccc(I)cc2F)c(C(=O)NOCCO)c(=O)n(C)c1=O` [Example 51, 1-Ethyl-6-(2-fluoro-4-iodophenylamino)-N-(2-hydroxyethoxy)-3-methyl-2,4-dioxo-1,2,3,4-tetrahydropyrimidine-5-carboxamide], the pIC50 was less than 4.60. In the case of `CCOC(=O)c1c(Nc2ccc(Br)cc2Cl)n(C)c(=O)n(C)c1=O` [Example 22, Ethyl 6-(4-bromo-2-chlorophenylamino)-1,3-dimethyl-2,4-dioxo-1,2,3,4-tetrahydropyrimidine-5-carboxylate], the pIC50 was less than 4.60. With `Cn1c(Nc2ccc(I)cc2F)c(C(=O)CO)c(=O)n(C)c1=O` [Example 15, 6-(2-Fluoro-4-iodophenylamino)-5-(2-hydroxyacetyl)-1,3-dimethylpyrimidine-2,4(1H,3H)-dione] the pIC50 was 5.60 to 6.30. Molecule `CCOC(=O)c1c(Nc2ccccc2F)n(C)c(=O)n(C)c1=O` [Example 21, Ethyl 6-(2-fluorophenylamino)-1,3-dimethyl-2,4-dioxo-1,2,3,4-tetrahydropyrimidine-5-carboxylate] has a pIC50 of less than 4.60. For `CN(C)NC(=O)c1c(Nc2ccc(I)cc2F)n(C)c(=O)n(C)c1=O` [Example 45, 6-(2-Fluoro-4-iodophenylamino)-N′,N′,1,3-tetramethyl-2,4-dioxo-1,2,3,4-tetrahydropyrimidine-5-carbohydrazide], the pIC50 was 5.60 to 6.30. With `CC(=O)OCC(=O)c1c(Nc2ccc(I)cc2F)n(C)c(=O)n(C)c1=O` [Example 14, 2-(6-(2-Fluoro-4-iodophenylamino)-1,3-dimethyl-2,4-dioxo-1,2,3,4-tetrahydropyrimidin-5-yl)-2-oxoethyl acetate] the pIC50 was less than 4.60. In the case of `Cn1c(Nc2ccc(I)cc2Cl)c(C(=O)NOC[C@H](O)CO)c(=O)n(C)c1=O` [Example 27, (R)-6-(2-chloro-4-iodophenylamino)-N-(2,3-dihydroxypropoxy)-1,3-dimethyl-2,4-dioxo-1,2,3,4-tetrahydropyrimidine-5-carboxamide], the pIC50 was no less than 6.30. `Cn1c(Nc2ccc(I)cc2F)c(C(=O)NOCCCO)c(=O)n(C)c1=O` [Example 29, 6-(2-Fluoro-4-iodophenylamino)-N-(3-hydroxypropoxy)-1,3-dimethyl-2,4-dioxo-1,2,3,4-tetrahydropyrimidine-5-carboxamide] was tested, and the pIC50 was 5.60 to 6.30. Molecule `Cc1cc(I)ccc1Nc1c(C(=O)NOCCO)c(=O)n(C)c(=O)n1C` [Example 35, N-(2-Hydroxyethoxy)-6-(4-iodo-2-methylphenylamino)-1,3-dimethyl-2,4-dioxo-1,2,3,4-tetrahydropyrimidine-5-carboxamide] has a pIC50 of no less than 6.30. `Cn1c(Nc2ccc(I)cc2Cl)c(C(=O)NOCCO)c(=O)n(C)c1=O` [Example 25, 6-(2-chloro-4-iodophenylamino)-N-(2-hydroxyethoxy)-1,3-dimethyl-2,4-dioxo-1,2,3,4-tetrahydropyrimidine-5-carboxamide] was tested, and the pIC50 was no less than 6.30. `CONC(=O)c1c(Nc2ccc(I)cc2F)n(C)c(=O)n(C)c1=O` [Example 5, 6-(2-Fluoro-4-iodophenylamino)-N-methoxy-1,3-dimethyl-2,4-dioxo-1,2,3,4-tetrahydropyrimidine-5-carboxamide] gave a pIC50 of 5.60 to 6.30. `Cn1c(Nc2ccc(I)cc2F)c(C(=O)NOCC[C@H](O)CO)c(=O)n(C)c1=O` [Example 34, (S)-N-(3,4-Dihydroxybutoxy)-6-(2-fluoro-4-iodophenylamino)-1,3-dimethyl-2,4-dioxo-1,2,3,4-tetrahydropyrimidine-5-carboxamide] showed a pIC50 of 4.60 to 5.60. Molecule `CCOC(=O)c1c(Nc2ccc(I)cc2F)n(C)c(=O)n(C)c1=O` [Example 20, Ethyl 6-(2-fluoro-4-iodophenylamino)-1,3-dimethyl-2,4-dioxo-1,2,3,4-tetrahydropyrimidine-5-carboxylate] has a pIC50 of less than 4.60.
